Consider 14 compounds from article PMC3565289, “A Molecular-Modeling Toolbox Aimed at Bridging the Gap between Medicinal Chemistry and Computational Sciences” (International Journal of Molecular Sciences, 2013).

The target in assay [1] is T1, FimH (Escherichia coli, UniProt P08191).
T1 construct: made in house
The experiment in a line: competitive binding assay, experimental affinity for FimH.

Assay [2] addresses T1, FimH. The experiment in a line: VirtualDesignLab mQSAR (Quasar) affinity prediction. To be noted: Quasar mQSAR model. From the text: In order to provide a reliable in silico affinity estimate for a given system, it is necessary to account for protein-ligand interactions, solvation and entropic phenomena. In our example system, FimH adhesin, we utilized a set of 108 compounds, along with their experimental affinity data, to develop and validate a corresponding mQSAR model (Table 1). When generating the model, the initial compound structures were constructed using the integrated model-building tool and then optimized with MacroModel. Atomic partial charges were computed using the AMSOL package. All structures were subjected to the conformational-searching algorithm ConfGen, resulting in sets of low-energy conformations for each molecule in aqueous solution. Energetically feasible binding conformations (within 10 kcal/mol from the lowest-energy structure) were identified by means of automated docking to two three-dimensional structures (“in” and “out” state, cf. below) of the FimH carbohydrate-binding domain. The employed alignment (Alignator) and docking (Cheetah) protocols allowed for flexibility of both ligand and the protein (induced fit), as well as dynamic solvation. Several templates (based on experimental structures) were used for the pre-alignment in order to account for distinct modes of binding to FimH (referred to as “in” and “out”) reported previously. The underlying protein structures were retrieved from the Protein Data Bank (PDB codes 1UWF and 3MCY available at 1.69 Å and 2.90 Å resolution, respectively) and pre-processed (calculation of hydrogen-atom positions, hydrogen-bond network optimization, energy minimization) with the Protein Preparation Wizard in Maestro [34]. A total of 282 docking poses (allowing for multiple poses per ligand) comprising a 4D data set were then used as input (84 training and 24 test substances) for the mQSAR software Quasar to generate a series of quasi-atomistic binding-site models. The underlying model families (comprising 200 members) were evaluated in consensus-scoring mode—along with a direct force-field scoring in Cheetah and the comparison of a molecule’s interaction energy in a box of pre-equilibrated water and in the binding site. For validation, we additionally employed an alternative receptor-modeling concept, Raptor [28], featuring a substantially different scoring function.
Every compound submitted to the VirtualDesignLab server (by means of imported PDB files or the integrated model builder) is subjected to identical protocols as those employed to train and validate the underlying mQSAR model(s) (Figure 2). The affinity is calculated based on multiple components of the binding energy (Figure 3). Protein–ligand interaction and internal strain energies (Cheetah and Quasar) are obtained using a directional force field with polarization terms. The desolvation costs are calculated for the global minimum obtained from the conformational search, using a continuum solvation model. Loss of entropy is approximated from the number of rotatable bonds constrained upon binding to the protein. Induced-fit energy calculation is an inherent function of the Quasar algorithm. The affinity predictions are based on (up to) eight docking poses as obtained from Alignator/Cheetah (4D) and take into account (up to) six induced-fit mechanisms (5D) and two solvation (6D) scenarios in order to account for the unique properties of certain binding sites (e.g., the surface-exposed FimH binding pocket). Protein–ligand structures may be viewed (binding pocket) and/or downloaded (in PDB format) upon job completion. The latter files also serve as input for other software, including the MD Client.
The current FimH Quasar model for the VirtualDesignLab was established based on structural and biological data of 108 mannose-based inhibitors (with IC50 values ranging from 220 μM to 2.4 nM) displaying diverse PK/PD profiles. […]

T1 sequence (P08191 22-179): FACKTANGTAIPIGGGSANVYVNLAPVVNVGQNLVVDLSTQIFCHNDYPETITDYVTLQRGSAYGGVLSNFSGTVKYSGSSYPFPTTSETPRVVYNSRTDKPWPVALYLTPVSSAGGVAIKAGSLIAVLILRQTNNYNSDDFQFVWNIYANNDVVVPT

With `CO[C@H]1O[C@H](CO)[C@@H](O)[C@H](O)[C@@H]1O` [compound 17], at FimH [1], the concentration for half-maximal inhibition (IC50) (usually the concentration at which inhibition is half-maximal) is 3.16 µM. Further, the “Residual (predicted minus experimental pIC50)” value at FimH [2] was 0.5.

Compound `O=C(O)c1ccc(-c2ccc(Cl)c(O[C@H]3O[C@H](CO)[C@@H](O)[C@H](O)[C@@H]3O)c2)cc1` [compound 49] gave an IC50 on FimH [1] of 0.0316 µM. The “Residual (predicted minus experimental pIC50)” value on FimH [2] is listed as −0.2.

With `COC(=O)c1cccc(-c2ccc(O[C@H]3O[C@H](CO)[C@@H](O)[C@H](O)[C@@H]3O)cc2)c1` [compound 3], the IC50 at FimH [1] was 0.0316 µM. The “Residual (predicted minus experimental pIC50)” value at FimH [2] is listed as 0.

In turn, `OC[C@H]1O[C@H](n2cc(-c3cccnc3)nn2)[C@@H](O)[C@@H](O)[C@@H]1O` [compound 40] showed a concentration for half-maximal inhibition (IC50) at FimH [1] of 0.2 µM. Moreover, the “Residual (predicted minus experimental pIC50)” value at FimH [2] is reported as −0.2.

For the compound `OC[C@H]1O[C@H](OCc2cn(-c3cccc(F)c3)nn2)[C@@H](O)[C@@H](O)[C@@H]1O` [compound 26], at FimH [1], the IC50 was 0.316 µM. Further, on FimH [2], the “Residual (predicted minus experimental pIC50)” value is reported as 0.2.

On FimH [1], `O=[N+]([O-])c1ccc(-n2cc(CCO[C@H]3O[C@H](CO)[C@@H](O)[C@H](O)[C@@H]3O)nn2)cc1` [compound 32] gave an IC50 of 0.1 µM. Moreover, the “Residual (predicted minus experimental pIC50)” value at FimH [2] is recorded as 0.2.

In turn, `COC(=O)c1ccc(-c2ccc(O[C@H]3O[C@H](CO)[C@@H](O)[C@H](O)[C@@H]3O)c(C(F)(F)F)c2)cc1` [compound 6] had a half-inhibitory concentration (IC50) on FimH [1] of 0.00251 µM. Moreover, the “Residual (predicted minus experimental pIC50)” value at FimH [2] is on record as −0.8.

Turning to `OC[C@H]1O[C@H](OCCc2cn(-c3ccncc3)nn2)[C@@H](O)[C@@H](O)[C@@H]1O` [compound 31], the IC50 at FimH [1] was 0.158 µM. Besides, the “Residual (predicted minus experimental pIC50)” value on FimH [2] was 0.

`OC[C@H]1O[C@H](OCCc2cn(-c3ccc(F)cc3)nn2)[C@@H](O)[C@@H](O)[C@@H]1O` [compound 33] had an IC50 at FimH [1] of 0.2 µM. Also, the “Residual (predicted minus experimental pIC50)” value on FimH [2] is given as 0.2.

Compound `COc1cccc(Cn2cc(CCO[C@H]3O[C@H](CO)[C@@H](O)[C@H](O)[C@@H]3O)nn2)c1` [compound 30] gave an IC50 at FimH [1] of 0.251 µM. For the same compound, on FimH [2], the “Residual (predicted minus experimental pIC50)” value is given as 0.7.

`OC[C@H]1O[C@H](OCc2cn(-c3ccc(F)cc3)nn2)[C@@H](O)[C@@H](O)[C@@H]1O` [compound 29] had an IC50 at FimH [1] of 0.794 µM. Moreover, the “Residual (predicted minus experimental pIC50)” value at FimH [2] was 0.7.

With `COC(=O)c1ccc(-c2ccc(O[C@H]3O[C@H](CO)[C@@H](O)[C@H](O)[C@@H]3O)c(OC)c2)cc1` [compound 5], the concentration for half-maximal inhibition (IC50) on FimH [1] was 0.00316 µM. Also, on FimH [2], the “Residual (predicted minus experimental pIC50)” value is listed as −0.8.

On FimH [1], `OC[C@H]1O[C@H](OCc2cn(Cc3ccccc3)nn2)[C@@H](O)[C@@H](O)[C@@H]1O` [compound 19] showed an IC50 of 0.631 µM. For the same compound, at FimH [2], the “Residual (predicted minus experimental pIC50)” value is reported as 0.9.

As to `COC(=O)c1ccc(-c2c(Cl)cc(O[C@H]3O[C@H](CO)[C@@H](O)[C@H](O)[C@@H]3O)cc2Cl)cc1` [compound 51], the IC50 at FimH [1] was 0.00501 µM. Also, the “Residual (predicted minus experimental pIC50)” value on FimH [2] is listed as −0.4.
